Test results: PubChem BioAssay (NCI)
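Each compound was tested at five concentrations against cells in 96-well plates for 48 hours. TGI denotes the concentration required for complete inhibition of growth.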

How the values were obtained:
Experiment in all cases: NCI anticancer screen, dose series, 48 h
OVCAR-5 ovarian = system: OVCAR-5 ovarian
SNB-19 CNS = system: SNB-19 CNS
SN12C renal = system: SN12C renal
DU-145 prostate = system: DU-145 prostate
EKVX NSCLC = system: EKVX NSCLC
MDA-MB-435 = system: MDA-MB-435
HOP-62 NSCLC = system: HOP-62 NSCLC
MALME-3M melanoma = system: MALME-3M melanoma
OVCAR-3 ovarian = system: OVCAR-3 ovarian
TK-10 renal = system: TK-10 renal
HS 578T breast = system: HS 578T breast
HCT-116 colon = system: HCT-116 colon
HT29 colon = system: HT29 colon
M14 melanoma = system: M14 melanoma
SK-MEL-5 melanoma = system: SK-MEL-5 melanoma
IGROV1 ovarian = system: IGROV1 ovarian
UACC-257 melanoma = system: UACC-257 melanoma
BT-549 breast = system: BT-549 breast
SW-620 colon = system: SW-620 colon
OVCAR-8 ovarian = system: OVCAR-8 ovarian
ACHN renal = system: ACHN renal
SF-295 CNS = system: SF-295 CNS
MDA-MB-231 breast = system: MDA-MB-231 breast
A498 renal = system: A498 renal
UACC-62 melanoma = system: UACC-62 melanoma
SK-MEL-28 melanoma = system: SK-MEL-28 melanoma
SF-268 CNS = system: SF-268 CNS
HCC-2998 colon = system: HCC-2998 colon
KM12 colon = system: KM12 colon
SK-MEL-2 melanoma = system: SK-MEL-2 melanoma
CCRF-CEM leukemia = system: CCRF-CEM leukemia
RXF 393 renal = system: RXF 393 renal
CAKI-1 renal = system: CAKI-1 renal
NCI-H226 lung = system: NCI-H226 lung
SR leukemia = system: SR leukemia
LOX IMVI melanoma = system: LOX IMVI melanoma
NCI/ADR-RES ovarian = system: NCI/ADR-RES ovarian
786-0 renal = system: 786-0 renal
OVCAR-4 ovarian = system: OVCAR-4 ovarian
NCI-H460 lung = system: NCI-H460 lung
HOP-92 NSCLC = system: HOP-92 NSCLC
NCI-H23 lung = system: NCI-H23 lung
UO-31 renal = system: UO-31 renal
HCT-15 colon = system: HCT-15 colon
MOLT-4 leukemia = system: MOLT-4 leukemia
MDA-N = system: MDA-N
K-562 leukemia = system: K-562 leukemia
U251 CNS = system: U251 CNS
PC-3 prostate = system: PC-3 prostate
SNB-75 CNS = system: SNB-75 CNS
T-47D breast = system: T-47D breast
NCI-H522 lung = system: NCI-H522 lung
A549 NSCLC = system: A549 NSCLC
SK-OV-3 ovarian = system: SK-OV-3 ovarian
MCF7 breast = system: MCF7 breast
SF-539 CNS = system: SF-539 CNS
COLO 205 colon = system: COLO 205 colon

## CC(CO)(CO)Nc1ncnc2ccccc12
OVCAR-5 ovarian
  TGI: > 100 µM
SNB-19 CNS
  TGI: > 100 µM
SN12C renal
  TGI: > 100 µM
DU-145 prostate
  TGI: > 100 µM
EKVX NSCLC
  TGI: > 100 µM
MDA-MB-435
  TGI: > 100 µM
HOP-62 NSCLC
  TGI: > 100 µM
MALME-3M melanoma
  TGI: > 100 µM
OVCAR-3 ovarian
  TGI: > 100 µM
TK-10 renal
  TGI: > 100 µM
HS 578T breast
  TGI: > 100 µM
HCT-116 colon
  TGI: > 100 µM
HT29 colon
  TGI: > 100 µM
M14 melanoma
  TGI: > 100 µM
SK-MEL-5 melanoma
  TGI: > 100 µM
IGROV1 ovarian
  TGI: > 100 µM
UACC-257 melanoma
  TGI: > 100 µM
BT-549 breast
  TGI: > 100 µM
SW-620 colon
  TGI: > 100 µM
OVCAR-8 ovarian
  TGI: > 100 µM
ACHN renal
  TGI: > 100 µM
SF-295 CNS
  TGI: > 100 µM
MDA-MB-231 breast
  TGI: > 100 µM
A498 renal
  TGI: > 100 µM
UACC-62 melanoma
  TGI: > 100 µM
SK-MEL-28 melanoma
  TGI: > 100 µM
SF-268 CNS
  TGI: > 100 µM
HCC-2998 colon
  TGI: > 100 µM
KM12 colon
  TGI: > 100 µM
SK-MEL-2 melanoma
  TGI: > 100 µM
CCRF-CEM leukemia
  TGI: > 100 µM
RXF 393 renal
  TGI: > 100 µM
CAKI-1 renal
  TGI: > 100 µM
NCI-H226 lung
  TGI: > 100 µM
SR leukemia
  TGI: > 100 µM
LOX IMVI melanoma
  TGI: > 100 µM
NCI/ADR-RES ovarian
  TGI: > 100 µM
786-0 renal
  TGI: > 100 µM
OVCAR-4 ovarian
  TGI: > 100 µM
NCI-H460 lung
  TGI: > 100 µM
HOP-92 NSCLC
  TGI: > 100 µM
NCI-H23 lung
  TGI: > 100 µM
UO-31 renal
  TGI: > 100 µM
HCT-15 colon
  TGI: > 100 µM
MOLT-4 leukemia
  TGI: > 100 µM
MDA-N
  TGI: > 100 µM
K-562 leukemia
  TGI: > 100 µM
U251 CNS
  TGI: > 100 µM
PC-3 prostate
  TGI: > 100 µM
SNB-75 CNS
  TGI: > 100 µM
T-47D breast
  TGI: > 100 µM
NCI-H522 lung
  TGI: > 100 µM
A549 NSCLC
  TGI: > 100 µM

## Cc1ccsc1C(=O)C(CC(=O)c1cccs1)c1ccsc1 (configuration not stated)
SK-OV-3 ovarian
  TGI: > 100 µM
OVCAR-5 ovarian
  TGI: > 100 µM
SNB-19 CNS
  TGI: > 100 µM
SN12C renal
  TGI: > 100 µM
DU-145 prostate
  TGI: > 100 µM
EKVX NSCLC
  TGI: > 100 µM
MDA-MB-435
  TGI: > 100 µM
HOP-62 NSCLC
  TGI: > 100 µM
MALME-3M melanoma
  TGI: > 100 µM
OVCAR-3 ovarian
  TGI: > 100 µM
TK-10 renal
  TGI: > 100 µM
MCF7 breast
  TGI: > 100 µM
HS 578T breast
  TGI: > 100 µM
HCT-116 colon
  TGI: > 100 µM
HT29 colon
  TGI: > 100 µM
M14 melanoma
  TGI: > 100 µM
SK-MEL-5 melanoma
  TGI: > 100 µM
IGROV1 ovarian
  TGI: > 100 µM
UACC-257 melanoma
  TGI: > 100 µM
BT-549 breast
  TGI: > 100 µM
SW-620 colon
  TGI: > 100 µM
OVCAR-8 ovarian
  TGI: > 100 µM
ACHN renal
  TGI: > 100 µM
SF-295 CNS
  TGI: > 100 µM
MDA-MB-231 breast
  TGI: > 100 µM
A498 renal
  TGI: > 100 µM
SK-MEL-28 melanoma
  TGI: > 100 µM
SF-268 CNS
  TGI: > 100 µM
HCC-2998 colon
  TGI: > 100 µM
KM12 colon
  TGI: > 100 µM
CCRF-CEM leukemia
  TGI: > 100 µM
RXF 393 renal
  TGI: > 100 µM
CAKI-1 renal
  TGI: > 100 µM
NCI-H226 lung
  TGI: > 100 µM
SR leukemia
  TGI: > 100 µM
SF-539 CNS
  TGI: > 100 µM
COLO 205 colon
  TGI: > 100 µM
NCI/ADR-RES ovarian
  TGI: > 100 µM
786-0 renal
  TGI: > 100 µM
OVCAR-4 ovarian
  TGI: > 100 µM
NCI-H460 lung
  TGI: > 100 µM
HOP-92 NSCLC
  TGI: > 100 µM
NCI-H23 lung
  TGI: > 100 µM
UO-31 renal
  TGI: > 100 µM
HCT-15 colon
  TGI: > 100 µM
MOLT-4 leukemia
  TGI: > 100 µM
MDA-N
  TGI: > 100 µM
K-562 leukemia
  TGI: > 100 µM
U251 CNS
  TGI: > 100 µM
PC-3 prostate
  TGI: > 100 µM
SNB-75 CNS
  TGI: > 100 µM
T-47D breast
  TGI: 77.1 µM
NCI-H522 lung
  TGI: > 100 µM
A549 NSCLC
  TGI: > 100 µM
